Results from patent publication US6767900B2, “Phosphonate nucleotide compound” (Mitsubishi Pharma Corporation, priority 2000, dated 2004).
pIC50: −log10 of the molar value.

Assays:
Hepatitis B Virus (HBV) = assay: Inhibitory effect against growth of hepatitis B virus (HBV-DNA synthesis in HB611 cells, Southern blotting); assay type: cell-based; settings: read-out: 50% inhibition concentration against HBV-DNA synthesis; HB611 cells (recombinant human hepatoma cells producing HBV); test compound 0.005 to 100 μM from day 8; DNA collected day 17
HB611 cells = assay: Cytotoxicity to HB611 cells; assay type: cell-based, human
Method: The inhibitory effect of the compound of the present invention against the growth of an HBV was measured by a known method (K. Ueda, et al., Virology, 169, 213-216 (1989)). 2×10^4 of HB611 cells (recombinant human hepatoma cells producing HBV) were cultured at 37° C. in Dulbecco ME medium containing 10% fetal bovine serum, streptomycin (100 μg/ml), penicillin (100IU/ml) and Genetisin (trade name, antibiotic by LifeTechnologies) (0.2 mg/ml). At the second day and the fifth day of culturing, the medium was replaced by a fresh medium, and then at the eighth day, the eleventh day and the fourteenth day of culturing, the medium was replaced with a medium containing 0.005 to 100 μM (final concentration) of the test compound, and at the seventeenth day of culturing, DNA of the cells were collected. […] Moreover, a concentration of the compounds required to kill 50% of HB611 cells was determined.
Each compound number in the table corresponds to the compound number in Table 1. For reference, the results of the evaluation of the compounds described in EP785208 are also shown.

SMILES: Nc1nc(Sc2ccc(O)cc2)c2ncn(CCOCP(=O)(OCC(F)(F)F)OCC(F)(F)F)c2n1 [Compound No. 3, 2-amino-9-[2-(phosphonomethoxy)ethyl]-6-(4-hydroxyphenylthio)purine bis(2,2,2-trifluoroethyl) ester]
- pIC50 (Hepatitis B Virus (HBV)): 7.30
- Cytotoxic concentration required to kill 50% of HB611 cells (HB611 cells): >1,000 μM
